These results are taken from ChEMBL document CHEMBL3044783, “Effects of pyrrolizidine alkaloids on the performance of plant-parasitic and free-living nematodes” (Pest Manag Sci, 2009).

Converted amounts (≈) assume the structure as drawn. The source made the active and inactive calls. The rule behind the calls is not given here.

Series [1] deals with Meloidogyne incognita. Description: Nematicidal activity against juvenile stage of Meloidogyne incognita (root-knot nematode) assessed as inhibition of mobility after 20 hr. It counts as functional.
Series [2] has as its system Meloidogyne incognita. The experiment in a line: Nematicidal activity against juvenile stage of Meloidogyne incognita (root-knot nematode) assessed as inhibition of mobility incubated for 168 hr followed by compound wash out measured after 24 hr. Type of series: functional.
The test system of series [3] is Heterodera schachtii. Description: Nematicidal activity against juvenile stage of Heterodera schachtii assessed as inhibition of mobility incubated for 168 hr followed by compound wash out measured after 24 hr. Type of series: functional.
Series [4] has as its system Heterodera schachtii. Description: Nematicidal activity against juvenile stage of Heterodera schachtii assessed as inhibition of mobility after 20 hr. Type of series: functional.
Series [5] deals with Meloidogyne incognita. Description: Nematicidal activity against juvenile stage of Meloidogyne incognita (root-knot nematode) assessed as inhibition of mobility after 168 hr. Type of series: functional.
Series [6] deals with Heterodera schachtii. The experiment in a line: Nematicidal activity against juvenile stage of Heterodera schachtii assessed as inhibition of mobility after 168 hr. It counts as functional.
The test system of series [7] is Pratylenchus penetrans. The experiment in a line: Nematicidal activity against juvenile stage of Pratylenchus penetrans assessed as inhibition of mobility incubated for 168 hr followed by compound wash out measured after 24 hr. It counts as functional.
Series [8] relates to Rhabditis sp. Description: Nematicidal activity against juvenile stage of Rhabditis sp. assessed as inhibition of mobility after 20 hr. It counts as functional, organism-based.
Series [9] relates to Rhabditis sp. The experiment in a line: Nematicidal activity against juvenile stage of Rhabditis sp. assessed as reduction of nematode development at 0.1 mg/mL after 72 hr by stereomicroscopic analysis (reference value: 62%). It counts as functional. More on the design: scale not given: the % may be the effect or the level left.
For series [10], the system named is Rhabditis sp. Description: Nematicidal activity against juvenile stage of Rhabditis sp. assessed as inhibition of mobility after 168 hr. It counts as functional.
Series [11] concerns Rhabditis sp. The experiment in a line: Nematicidal activity against juvenile stage of Rhabditis sp. assessed as reduction of nematode development at 0.01 mg/mL after 72 hr by stereomicroscopic analysis (reference value: 62%). Type of series: functional. Also on record: scale not given: the % may be the effect or the level left.
Series [12] has as its system Pratylenchus penetrans. Description: Nematicidal activity against juvenile stage of Pratylenchus penetrans assessed as inhibition of mobility after 168 hr. It counts as functional.
Series [13] concerns Rhabditis sp. Description: Nematicidal activity against juvenile stage of Rhabditis sp. assessed as reduction of nematode development at 1 mg/mL after 72 hr by stereomicroscopic analysis (reference value: 62%). It counts as functional. Also on record: scale not given: the % may be the effect or the level left.
Series [14] relates to Pratylenchus penetrans. The experiment in a line: Nematicidal activity against juvenile stage of Pratylenchus penetrans assessed as inhibition of mobility after 20 hr. It counts as functional.
Series [15] deals with Rhabditis sp. Description: Nematicidal activity against juvenile stage of Rhabditis sp. assessed as reduction of fecundity at 0.1 mg/mL after 72 hr by stereomicroscopic analysis relative to untreated control. It counts as functional, organism-based.
Series [16] relates to Rhabditis sp. Description: Nematicidal activity against juvenile stage of Rhabditis sp. assessed as reduction of fecundity at 0.01 mg/mL after 72 hr by stereomicroscopic analysis relative to untreated control. Type of series: functional, organism-based.
A short description of series [17]: Stability of the compound assessed as apperance of pyrroles at 5 mg/mL after 166 hr by thin layer chromatographic analysis under hot temperature. It counts as physicochemical.
Series [18] relates to Meloidogyne incognita. Description: Repellent activity against juvenile stage of Meloidogyne incognita (root-knot nematode) at 0.1 mg/mL after 40 hr by stereomicroscopic analysis (reference value: 51%). It counts as functional.
A short description of series [19]: Stability of the compound assessed as apperance of new pyrrolizidine alkaloids at 5 mg/mL after 166 hr by thin layer chromatographic analysis under hot temperature. Type of series: physicochemical.
Series [20] relates to Rhabditis sp. Description: Repellent activity against juvenile stage of Rhabditis sp. at 0.1 mg/mL after 20 hr by stereomicroscopic analysis (reference value: 48%). It counts as functional.
Series [21] can be described thus: Stability of the compound assessed as apperance of new pyrrolizidine alkaloids at 5 mg/mL after 24 to 168 hr by thin layer chromatographic analysis under UV light and hot temperature. Type of series: physicochemical.
A short description of series [22]: Stability of the compound assessed as conversion of free base to N-oxide at 5 mg/mL after 24 to 168 hr by thin layer chromatographic analysis under cold temperature. It counts as physicochemical.
For series [23], the system named is Rhabditis sp. Description: Repellent activity against juvenile stage of Rhabditis sp. at 1 mg/mL after 20 hr by stereomicroscopic analysis (reference value: 48%). It counts as functional.
Series [24] in a line: Stability of the compound assessed as apperance of pyrroles at 5 mg/mL after 24 to 168 hr by thin layer chromatographic analysis under UV light and hot temperature. It counts as physicochemical.
A short description of series [25]: Stability of the compound assessed as apperance of new pyrrolizidine alkaloids at 5 mg/mL after 24 to 168 hr by thin layer chromatographic analysis under UV light and cold temperature. It counts as physicochemical.
The subject of series [26] is Meloidogyne incognita. The experiment in a line: Repellent activity against juvenile stage of Meloidogyne incognita (root-knot nematode) at 1 mg/mL after 20 hr by stereomicroscopic analysis (reference value: 50%). It counts as functional.
Series [27] concerns Rhabditis sp. Description: Repellent activity against juvenile stage of Rhabditis sp. at 0.1 mg/mL after 40 hr by stereomicroscopic analysis (reference value: 50%). It counts as functional.
In series [28] the test system is Phasmarhabditis hermaphrodita. Description: Nematicidal activity against juvenile stage of Phasmarhabditis hermaphrodita of assessed as inhibition of mobility after 168 hr. Type of series: functional.
Series [29] deals with Meloidogyne incognita. Description: Repellent activity against juvenile stage of Meloidogyne incognita (root-knot nematode) at 0.1 mg/mL after 20 hr by stereomicroscopic analysis (reference value: 50%). Type of series: functional.
Series [30] is described as follows: Stability of the compound assessed as conversion of free base to N-oxide at 5 mg/mL after 24 to 168 hr by thin layer chromatographic analysis under hot temperature. Type of series: physicochemical.
The test system of series [31] is Meloidogyne incognita. The experiment in a line: Ovicidal activity against Meloidogyne incognita (root-knot nematode) assessed as egg hatching at 1 mg/mL after 24 hr (reference value: 3%). It counts as functional.
A short description of series [32]: Stability of the compound assessed as conversion of free base to N-oxide at 5 mg/mL after 24 to 168 hr by thin layer chromatographic analysis under UV light and cold temperature. Type of series: physicochemical.
The test system of series [33] is Rhabditis sp. The experiment in a line: Repellent activity against juvenile stage of Rhabditis sp. at 1 mg/mL after 40 hr by stereomicroscopic analysis (reference value: 50%). It counts as functional.
Series [34] relates to Meloidogyne incognita. The experiment in a line: Ovicidal activity against Meloidogyne incognita (root-knot nematode) assessed as egg hatching at 1 mg/mL after 336 hr (reference value: 54%). Type of series: functional.
The nature of series [35]: Stability of the compound assessed as apperance of pyrroles at 5 mg/mL after 24 to 168 hr by thin layer chromatographic analysis under UV light and cold temperature. Type of series: physicochemical.
The test system of series [36] is Phasmarhabditis hermaphrodita. The experiment in a line: Nematicidal activity against juvenile stage of Phasmarhabditis hermaphrodita of assessed as inhibition of mobility after 20 hr. It counts as functional, organism-based.
The nature of series [37]: Stability of the compound assessed as apperance of pyrroles at 5 mg/mL after 24 hr by thin layer chromatographic analysis under hot temperature. It counts as physicochemical.
Series [38] is described as follows: Stability of the compound assessed as apperance of new pyrrolizidine alkaloids at 5 mg/mL after 24 hr by thin layer chromatographic analysis under hot temperature. Type of series: physicochemical.
The nature of series [39]: Stability of the compound assessed as conversion of free base to N-oxide at 5 mg/mL after 24 to 168 hr by thin layer chromatographic analysis under UV light and hot temperature. It counts as physicochemical.
The nature of series [40]: Stability of the compound assessed as apperance of new pyrrolizidine alkaloids at 5 mg/mL after 24 hr by thin layer chromatographic analysis under cold temperature. Type of series: physicochemical.
Series [41] has as its system Meloidogyne incognita. Description: Repellent activity against juvenile stage of Meloidogyne incognita (root-knot nematode) at 1 mg/mL after 40 hr by stereomicroscopic analysis (reference value: 51%). Type of series: functional.
A short description of series [42]: Stability of the compound assessed as apperance of new pyrrolizidine alkaloids at 5 mg/mL after 166 hr by thin layer chromatographic analysis under cold temperature. Type of series: physicochemical.

The term MIC50 denotes an inhibitory concentration at the 50% level, which refers to growth in some studies and to a panel of isolates in others. On to `C/C=C1/C[C@@H](C)[C@@](C)(O)C(=O)OCC2=CC[N+]3([O-])CC[C@@H](OC1=O)[C@@H]23` (stereo partly specified) [SENECIONINE N-OXIDE], for which the MIC50 result in series [1], in [2] and in series [3] was “inactive” each time. The results for the MIC50 in [4], in series [5] and in [6] were 7200 µg/mL (≈ 20.5 mM), 2900 µg/mL (≈ 8.25 mM) and 3400 µg/mL (≈ 9.68 mM), respectively.
On to `C/C=C(/C)C(=O)O[C@H]1CC[N+]2([O-])CC=C(COC(=O)[C@](O)(C(C)C)[C@@H](C)OC)[C@H]12` (stereo partly specified) [LASIOCARPINE N-OXIDE], for which the MIC50 entry in [1], in series [2], in series [3], in [4] and in series [6] was “inactive” in each case. For the same compound, the MIC50 in series [5] turned out to be 84400 µg/mL (≈ 205 mM).
For the compound `C/C=C(/C)C(=O)O[C@H]1CCN2CC=C(COC(=O)[C@](O)([C@H](C)OC)C(C)(C)O)[C@H]12` [LASIOCARPINE], the MIC50 result in series [1] and in series [4] was “inactive” each time. Also, the MIC50 in series [2] is 1000 µg/mL (≈ 2.43 mM); in series [3], 1000 µg/mL (≈ 2.43 mM); in series [5] it was 500 µg/mL (≈ 1.22 mM); in series [6], 3800 µg/mL (≈ 9.23 mM).
Consider `CO[C@H](C)[C@](O)(C(=O)OCC1=CC[N+]2([O-])CC[C@H](O)[C@@H]12)C(C)C` (stereo partly specified) [HELIOTRINE N-OXIDE], for which the MIC50 in series [1] was 4800 µg/mL (≈ 14.6 mM); in series [2], 1700 µg/mL (≈ 5.16 mM); in series [5] it was 900 µg/mL (≈ 2.73 mM); in series [6], 77400 µg/mL (≈ 235 mM). Moreover, the MIC50 result in [7], in series [8], in series [3], in [10], in series [4] and in series [12] was “inactive” in each case. Moreover, in [14], the MIC50 entry was “inactive”. For the same compound, the figures for the Activity in [9], in series [11] and in series [13] were 55%, 68% and 0%, respectively. In addition, the result in series [15] was Active.
Take `CO[C@H](C)[C@](O)(C(=O)OCC1=CCN2CC[C@H](O)[C@@H]12)C(C)C` [HELIOTRINE]: the MIC50 stood at 57900 µg/mL (≈ 185 mM) in series [1]; 3300 µg/mL (≈ 10.5 mM) in series [7]; 800 µg/mL (≈ 2.55 mM) in series [2]; 1100 µg/mL (≈ 3.51 mM) in [3]; 100 µg/mL (≈ 0.319 mM) in series [10]; 4800 µg/mL (≈ 15.3 mM) in series [12]. Further, the figures for the MIC50 in [5], in [6] and in series [14] were 300 µg/mL (≈ 0.957 mM), 2100 µg/mL (≈ 6.7 mM) and 49800 µg/mL (≈ 159 mM), respectively. The MIC50 entry in series [8] and in series [4] was “inactive” throughout. Further, the Activity in [9] is reported as 32%; in series [11] it was 58%; in series [13], 0%. For the same compound, the result in [16] and in [15] was Active.
Consider `C[C@H]1C(=O)O[C@@H]2CCN3CC=C(COC(=O)[C@](C)(O)[C@]1(C)O)[C@H]23` [MONOCROTALINE], for which the Stability result in [17] is given as “Unstable”; in [19], “Unstable”; in series [21], “Unstable”; in series [22] it was “Stable”; in series [24] it was “Unstable”; in series [25] it was “Unstable”. Moreover, the Stability entry in [30] is reported as “Stable”; in series [32], “Stable”; in [35], “Unstable”; in [37], “Stable”; in [38], “Stable”; in series [39], “Stable”. Also, the Stability result was “Stable” in series [40] and “Unstable” in [42]. In addition, the Repellency in [18] came out at 52%; in [20] it was 45%; in series [23], 92%; in series [26], 55%; in series [27], 49%; in [29], 51%. Also, the Repellency is 93% in series [33] and 52% in series [41]. Besides, the MIC50 came out at 31500 µg/mL (≈ 96.8 mM) in series [1]; 5800 µg/mL (≈ 17.8 mM) in series [7]; 400 µg/mL (≈ 1.23 mM) in series [2]; 1700 µg/mL (≈ 5.22 mM) in series [3]; 150 µg/mL (≈ 0.461 mM) in [10]; 1800 µg/mL (≈ 5.53 mM) in series [12]. The values for the MIC50 in [5], in series [6] and in [14] were 300 µg/mL (≈ 0.922 mM), 2000 µg/mL (≈ 6.15 mM) and 25900 µg/mL (≈ 79.6 mM), respectively. The MIC50 result in series [8], in [28], in series [36] and in series [4] was “inactive” throughout. Besides, the Activity was determined as 2% in series [31] and 29% in [34].
